In patent US20050228038A1, “11-Beta hydroxysteroid dehydrogenase type 1 inhibitors as anti-obesity/anti-diabetes compounds and 17-beta hydrosteroid dehydrogenase type I inhibitors as useful agents for the treatment of cancers, especially breast cancer” (priority 2004, published 2005):
pKi: −log10 of the molar value.

Target: T1, 17betaHSD1 (Homo sapiens, UniProt P14061)
T1 sequence (P14061 1-328): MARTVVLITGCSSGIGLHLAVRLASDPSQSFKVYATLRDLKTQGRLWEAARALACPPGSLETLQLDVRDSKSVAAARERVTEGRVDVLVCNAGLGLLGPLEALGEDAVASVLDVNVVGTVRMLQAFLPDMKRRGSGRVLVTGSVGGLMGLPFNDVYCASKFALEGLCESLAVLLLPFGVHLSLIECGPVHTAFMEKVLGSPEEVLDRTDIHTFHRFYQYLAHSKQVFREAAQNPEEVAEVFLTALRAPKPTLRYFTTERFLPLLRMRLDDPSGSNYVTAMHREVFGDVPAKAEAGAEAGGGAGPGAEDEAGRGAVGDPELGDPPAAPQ
Experiment: screen of gossypol related compounds against 17betaHSD1 (enzyme activity)
Format: biochemical
Settings: for pKi: read-out: inhibition constant
Method: Seven gossypol related compounds were screened against 17betaHSD1. […] Four gossypol derivatives, in which the aldehyde functional group is modified, were tested. The peri-acylated nitrites, gossylic nitrile diacetate and gossylic nitrile divalerate, represent compounds in which the aldehyde group is [drawing 13] converted to a nitrile, and the peri hydroxyl of gossypol is derivatized.
Gossylic iminolactone and gossylic lactone were the most promising compounds, producing 80-90% reduction in enzyme activity. The inhibition constants for gossylic lactone and gossylic iminolactone were determined to be 2.2 and 4.3 uM respectively.

Compound | pKi | further results
Cc1cc2c(C(C)C)c(O)c(O)c3c2c(c1-c1c(C)cc2c(C(C)C)c(O)c(O)c4c2c1OC4=N)OC3=N [Gossylic iminolactone, gossylic iminolactone] | 5.37 | –
CC(=O)Oc1c(-c2c(C)cc3c(C(C)C)c(O)c(O)c(C#N)c3c2OC(C)=O)c(C)cc2c(C(C)C)c(O)c(O)c(C#N)c12 [Gossylic nitrile diacetate, gossylic nitrile diacetate] | – | reduction in enzyme activity (concentrations not given): 13%
Cc1cc2c(C(C)C)c(O)c(O)c3c2c(c1-c1c(C)cc2c(C(C)C)c(O)c(O)c4c2c1OC4=O)OC3=O [gossylic lactone] | 5.66 | –
CCCCC(=O)Oc1c(-c2c(C)cc3c(C(C)C)c(O)c(O)c(C#N)c3c2OC(=O)CCCC)c(C)cc2c(C(C)C)c(O)c(O)c(C#N)c12 [gossylic nitrile divalerate] | – | reduction in enzyme activity (in words) (concentrations not given): no reduction
